In the NIST ThermoML archive (doi:10.1016/j.jct.2013.07.010):

Assays:
[1] = cn = amount concentration of the nth substance listed, in mol/dm3; conditions: 101 kPa, Liquid; for viscosity: Capillary tube (Ostwald / Ubbelohde) method; for mass density: Vibrating tube method
[2] = 101 kPa, Liquid; for viscosity: Capillary tube (Ostwald / Ubbelohde) method; for mass density: Vibrating tube method

CCCC[N+](CCCC)(CCCC)CCCC.[Br-] [tetrabutylammonium bromide] + CO
[1]
Conditions | mass density, 298.15 K [kg/m3] | mass density, 308.15 K [kg/m3] | mass density, 318.15 K [kg/m3] | viscosity, 298.15 K [mPa·s] | viscosity, 308.15 K [mPa·s] | viscosity, 318.15 K [mPa·s]
c1 = 0.02 | 790.69 | 780.94 | 771.06 | 0.5542 | 0.4951 | 0.439
c1 = 0.04 | 792.74 | 783.43 | 773.92 | 0.581 | 0.5135 | 0.4469
c1 = 0.05 | 794.89 | 785.33 | 775.68 | 0.5973 | 0.5274 | 0.4584

CO [methanol] + CCCC[N+](CCCC)(CCCC)CCCC.[Br-]
[1], c2 = 0
Conditions | mass density [kg/m3] | viscosity [mPa·s]
298.15 K | 786.62 | 0.5451
308.15 K | 777.18 | 0.476
318.15 K | 767.74 | 0.4183

CO [methanol]
[2]
Conditions | mass density [kg/m3] | viscosity [mPa·s]
298.15 K | 786.62 | 0.5451
308.15 K | 777.18 | 0.476
318.15 K | 767.74 | 0.4183
